Results: a melting point compilation (Tetko et al.; mined from patent text by program, amines drawn as free bases though some values may be those of a salt)

| melting point [°C] | Structure (SMILES) |
| --- | --- |
| 180 to 182 | CCOCCOc1cccc(-c2ccc3c(c2)C=C(C(=O)Nc2ccc(CN(C)C4CCOCC4)cc2)CCS3(=O)=O)c1 |
| 123 to 125 | COc1ccc(C(=O)CC2CSCCC2=O)cc1 (stereo not given) |
| 149 to 153 | O=C(Nc1cccc(C2CN3CCSC3=N2)c1)c1ccc(Br)nc1 (stereo not given) |
| 200 to 201 | COc1ccc2cnc(Nc3ccc(N4CCCCC4)c(F)c3)nc2c1C1CCCC1 |
| 96 | CC(C)(C)c1c(Cl)nc(OCc2ccccc2)nc1OCc1ccccc1 |
| 188 | Cc1c(C(=O)O)cnn1-c1ccc(Cl)c(Cl)c1 |
| 201 to 202 | COc1c(F)cc(F)c(OC)c1-c1ccc(C[C@H](NC(=O)c2c(Cl)cccc2Cl)C(=O)O)cc1 |
| 186 to 189 | COC(=O)Nc1ccc(NC(=O)CN(C)C)c([N+](=O)[O-])c1 |
| 190 to 193 | CC(=O)Nc1cccc(NC(=O)C=C2CC(C(=O)O)Nc3cc(Cl)cc(Cl)c32)c1 (racemic) |
| 132 to 133 | Cc1ccc(Oc2ccccc2-n2cncn2)c(O)c1 |
| 163 to 165 | CCOC(=O)C1=C(N)C(OCC)=NS1(=O)=O |
| 145 to 146 | CSCc1ccc(NC(=O)/C=C/c2cnn(C)c2-c2ccc(SC)cc2)cc1 |
| 74 | CN(CCOc1ccc([N+](=O)[O-])cc1)CCc1ccc([N+](=O)[O-])cc1 |
| 114 to 116 | N#Cc1ncncc1-c1ccc(CBr)cc1 |
| > 260 | CC(C)(C)c1cc(-c2c[nH]c(=O)[nH]2)cc(C(C)(C)C)c1O |
| 218 to 219 | Cc1c(C(=O)Nc2ccc(N3CCNCC3)c(C#N)c2)cnn1-c1ccc(F)cc1 |
| 217 to 219 | COC(=O)C1C(=O)Nc2ccccc2CC1c1ccc(OC)cc1 (stereo not given) |
| 173 | COC1(N(C)C)C=CC(C(=O)Nc2ccccc2)=CC1 (stereo not given) |
| 128 to 129 | COc1ccc(C[C@]2(C)C(=O)O[C@@H](c3ccccc3)N2C(=O)c2ccccc2)cc1 |
| 69 to 70 | CC(C)c1ccc(-c2c(Cl)ncnc2Cl)cc1 |

| melting point [°C] | Structure (SMILES) |
| --- | --- |
| 258 to 260 | CC(=O)Nc1nc(-c2ccc(S(=O)(=O)CCO)cc2)cs1 |
| 98 to 100 | c1ccc(CSc2nnn[nH]2)cc1 |
| 235 to 241 | Nc1cc2c(cc1Br)C(=O)OC2 |
| 84 to 85 | COc1c([N+](=O)[O-])cc(C=O)c(Cl)c1OC(C)=O |
| 126 to 127 | COC(=O)[C@@H]1CSC(=S)N1CC(C)(C)S |
| 223 to 225 | CC1(C)CCC(C)(C)c2cc3cc(-c4cc(C(=O)O)cs4)ccc3cc21 |
| 84 to 85 | CC(C)(C)OC(=O)NC(Cc1ccc(OC(=O)OCc2ccccc2)cc1)C(=O)O (stereo not given) |
| 176 to 178 | CCOC(=O)c1cc(=O)c2c(C(C)C)cccc2[nH]1 |
| > 320 | COc1ccc(C=Cc2nc3c([nH]2)c(=O)n(C)c(=O)n3C)cc1OC |
| 160 to 163 | O=C(c1ccccc1)c1cc(Oc2cc(Cl)cc(Cl)c2)c2c(=O)c3ccccc3sc2c1 |
| 79 to 81 | c1ccc(CNn2cnnc2-c2ccc(CN3CCCCCC3)s2)cc1 |
| 144 | COc1ccc(CNC(=O)[C@@H](NC(=O)[C@H](NCc2ccc(OC)c(OC)c2)[C@H](O)[C@H](Cc2ccccc2)NC(=O)OC(C)(C)C)C(C)C)c(O)c1 |
| 127 to 128 | Cc1cc2c(c(C)c1N)C(c1ccccc1)CO2 (stereo not given) |
| 81 to 83 | N#CCOc1ccc(-c2ccccc2)cc1 |
| 184 to 188 | Cc1ccc(-c2cc(-c3ccc(O)c(F)c3)nc3ccc(O)cc23)cc1 |
| 107 to 110 | Cc1cccnc1S(=O)(=O)NC(C)(C)C |
| 118 to 120 | COc1ccc(-c2cc(=O)n(C)c(=O)n2C)cc1OC |
| 175 to 177 | CC(C)(C)OC(=O)NC(Cc1ccccc1)C(=O)NC(Cc1ccccc1)C(=O)NCCc1c[nH]cn1 (stereo not given) |
| 56 to 57 | COC(=O)c1c(C)nc(CC(C)C)c(CN)c1-c1ccc(C)cc1 |

| Structure (SMILES) | melting point [°C] |
| --- | --- |
| O=C(O)c1cccc(CN2CCC(c3cn(CC4CC4)c4ccccc34)CC2)c1 | 207 |
